Data taken from patent US8710098B2, “Group of amino substituted benzoyl derivatives and their preparation and their use” (priority 2008, dated 2014).

The compounds below were run against T1, hA3G degradation mediated by HIV-1 Vif (UniProt P69723+Q9HC16) (assay: Screening experiment for up-regulation activity to hA3G (YFP-fused hA3G co-expressed with HIV-1 Vif, fluorescence)). Settings: YFP fluorescence of cells co-expressing Vif and hA3G-YFP; excitation 485 nm, detection 520 nm; averages of duplicates.
T1 construct: expressed in transfected cells
Assay type: cell-based, human
Text: Based on the advances making research on the hA3G degradation mediated by HIV-1 Vif, this invention establishes a high throughput anti-HIV-1 drug screening model using hA3G degradation mediated by HIV-1 Vif as target, to screen small molecule active compounds capable of inhibiting this degradation process. The function principle of this model is that HIV-1 Vif protein and hA3G fused yellow fluorescent protein (YFP) co-expressed in the cells, then the intracellular fluorescence intensity (at […]) decreases owing to the degradation of hA3G caused by Vif and subsequent degradation of YEP fused on hA3G. By means of measuring the change of fluorescent intensity, the influence of the screened compounds on the degradation of hA3G caused by Vif can quantitatively be analyzed. Simultaneously, to differentiate the non-specific inhibitory effect of diverse ubiquitin degradation route in the samples, this invention establishes a recheck model based on the detection of P53 degradation caused by the product of adenovirus early gene, to assure that the positive samples screened out by the proposed model can specifically block the degradation of hA3G caused by Vif.
Screening Experiment for Up-Regulation Activity to hA3G
The cells are picked up and cultured a culture bottle. When the cells grow full of the culture bottle, old culture medium is discarded and the cells are digested with digestion medium. When the cells turn round, the digestion medium is discarded and the culture medium is added in at once, the bottom of the bottle is gently blown with a pipette to make the cells disengage the bottle bottom and disperse into single cell suspension. After counting the cells using blood cell counting chamber, the cell suspension is inoculated into a culture dish for transfection. The medium containing the plasmid to be transfected and the transfection reagents is gently mixed up and incubated at room temperature. The medium is then added into the supernatant of the cell culture and cultured for a certain period of time. The old culture medium is then sucked out, the cells are digested with digestive medium, the digestive medium is subsequently discarded and culture medium is immediately added. The medium is gently blown to disperse the cells into single cell suspension. After counting the cells using blood cell counting chamber, the cells are ready for inoculation.
Samples of compounds[…]Pure tested compounds are dissolved in DMSO, the solution is diluted with equal proportional distilled water. The diluent is used to test the cell systems.
Sample solution of different concentration is added into the supernatant of a cell culture. After the cells are continuously cultured, old culture medium is sucked out and the cells are blown with PBS buffer until the cells completely disengage from the culture bottle.
The fluorescence intensity values of the cell suspension with test compound samples, positive control samples and negative control samples are respectively measured with fluorometer, the excitation wavelength is 485 nm and the detection wavelength 520 nm. Averages of duplicated measurements are taken as the results.
The measured fluorescence intensity values of the negative control samples (blink sample) subtracted from those of test compound samples, the results are taken as YFP fluorescence of different groups. Relative fluorescence intensity=fluorescence intensity of a test sample group/fluorescence intensity of the positive control group×100% Inhibition rate of degradation=(test sample group−negative control group)/(positive control group−negative control group)×100%

T1 sequence (P69723 whole entry, the tested form may be a part): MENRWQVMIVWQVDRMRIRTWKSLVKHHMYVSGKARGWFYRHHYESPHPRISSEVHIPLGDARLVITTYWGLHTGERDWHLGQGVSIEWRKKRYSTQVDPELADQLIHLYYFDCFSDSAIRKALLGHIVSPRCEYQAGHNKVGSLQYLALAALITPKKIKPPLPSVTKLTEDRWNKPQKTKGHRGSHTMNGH
T1 sequence (Q9HC16 whole entry, the tested form may be a part): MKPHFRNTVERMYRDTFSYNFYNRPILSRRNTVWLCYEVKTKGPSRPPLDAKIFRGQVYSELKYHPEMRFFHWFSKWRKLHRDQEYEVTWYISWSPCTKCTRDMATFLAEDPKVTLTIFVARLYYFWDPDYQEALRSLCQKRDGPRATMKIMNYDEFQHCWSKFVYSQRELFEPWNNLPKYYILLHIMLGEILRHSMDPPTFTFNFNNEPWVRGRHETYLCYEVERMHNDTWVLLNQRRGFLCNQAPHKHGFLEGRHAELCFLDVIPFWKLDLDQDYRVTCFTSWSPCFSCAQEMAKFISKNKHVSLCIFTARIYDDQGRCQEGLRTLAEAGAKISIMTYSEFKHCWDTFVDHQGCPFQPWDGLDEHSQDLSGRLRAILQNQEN

Point of comparison: `COc1ccc(C(=O)Oc2cc(OC)c(OC)c(OC)c2)cc1NC(=O)C(C)F` (stereo not drawn) [Compound 24], “hA3G up-regulation activity (%)” value 18.6%. Against it:
- COc1ccc(C(=O)Nc2cc(OC)c(OC)c(OC)c2)cc1NC(=O)CCl [Compound 1, N-(3′,4′,5′-trimethoxyphenyl)-3-(2-chloroacetamido)-4-methoxybenzamide] — higher, 36.3%
- CNc1cc(C(=O)Nc2cc(OC)nc(OC)n2)ccc1O [Compound 3, N-(2′,6′-dimethoxypyrimidinyl-4′-) 3-methylamino-4-hydroxylbenzamide] — higher, 20.2%
- COc1ccc(C(=O)Oc2cc(OC)c(OC)c(OC)c2)cc1N [Compound 4] — lower, 1.6%
- COc1ccc(C(=O)Sc2cc(OC)c(OC)c(OC)c2)cc1N [Compound 5, S-(3′,4′,5′-trimethoxyphenyl) 3-amino-4-methoxybenzenecarbothioate] — lower, 14.4%
- COc1ccc(C(=O)Cc2cc(OC)c(OC)c(OC)c2)cc1N [Compound 6] — higher, 28.7%
- CCC(=O)Nc1cc(C(=O)Sc2cc(OC)c(OC)c(OC)c2)ccc1OC [Compound 9, S-(3′,4′,5′-trimethoxyphenyl) 3-propionamido-4-methoxybenzenecarbothiolate] — higher, 46.5%
- CCC(=O)Nc1cc(C(=O)Cc2cc(OC)c(OC)c(OC)c2)ccc1OC [Compound 10, 1′-(3-propionamido-4-methoxy-benzoyl)methylene-3′,4′,5′-trimethoxybenzene] — higher, 28.9%
- COc1ccc(C(=O)Nc2cc(OC)c(OC)c(OC)c2)cc1NC(C)=O [Compound 11] — higher, 22.2%
- COc1ccc(C(=O)Oc2cc(OC)c(OC)c(OC)c2)cc1NC(C)=O [Compound 12] — higher, 31.6%
- COc1ccc(C(=O)Cc2cc(OC)c(OC)c(OC)c2)cc1NC(C)=O [Compound 13] — higher, 42.1%
- COc1ccc(C(=O)Nc2cc(OC)c(OC)c(OC)c2)cc1NC(=O)C(C)Cl (stereo not drawn) [Compound 14] — lower, 11.2%
- COc1ccc(C(=O)Sc2cc(OC)c(OC)c(OC)c2)cc1NC(=O)C(C)Cl (stereo not drawn) [Compound 15] — higher, 19.4%
- COc1ccc(C(=O)Cc2cc(OC)c(OC)c(OC)c2)cc1NC(=O)C(C)Cl (stereo not drawn) [Compound 16] — lower, 17.3%
- COc1ccc(C(=O)Nc2cc(OC)c(OC)c(OC)c2)cc1NC(=O)CF [Compound 17] — higher, 31.1%
- COc1ccc(C(=O)Oc2cc(OC)c(OC)c(OC)c2)cc1NC(=O)CF [Compound 18] — higher, 34.5%
- COc1ccc(C(=O)Sc2cc(OC)c(OC)c(OC)c2)cc1NC(=O)CF [Compound 19] — higher, 44.3%
- COc1ccc(C(=O)Cc2cc(OC)c(OC)c(OC)c2)cc1NC(=O)CF [Compound 20] — higher, 56.0%
- COc1ccc(C(=O)Sc2cc(OC)c(OC)c(OC)c2)cc1NC(=O)C(C)F (stereo not drawn) [Compound 21, S-(3′,4′,5′-trimethoxyphenyl)-3-(2-fluoropropionamido)-4-methoxybenzenecarbothiolate] — higher, 21.1%
- COc1ccc(C(=O)Sc2cc(OC)c(OC)c(OC)c2)cc1NC(C)=O [Compound 22] — higher, 24.6%
- COc1ccc(C(=O)Nc2cc(OC)c(OC)c(OC)c2)cc1NC(=O)C(C)F (stereo not drawn) [Compound 23] — higher, 29.3%
- COc1ccc(C(=O)Cc2cc(OC)c(OC)c(OC)c2)cc1NC(=O)C(C)F (stereo not drawn) [Compound 25, 3-(2″-fluoropropionamido)-4-methoxybenzoylmethylene-3′,4′,5′-trimethoxybenzene] — higher, 19.4%
- COc1ccc(C(=O)Oc2cc(OC)c(OC)c(OC)c2)cc1NC(=O)CCl [Compound 27] — higher, 32.1%
- COc1ccc(C(=O)Cc2cc(OC)c(OC)c(OC)c2)cc1NC(=O)CCl [Compound 28] — higher, 33.6%
- COc1ccc(C(=O)Nc2cc(OC)c(OC)c(OC)c2)cc1NC(=O)CBr [Compound 29] — higher, 25.3%
- COc1ccc(C(=O)Oc2cc(OC)c(OC)c(OC)c2)cc1NC(=O)CBr [Compound 30] — lower, 15.2%
- CCC(Br)C(=O)Nc1cc(C(=O)Nc2cc(OC)c(OC)c(OC)c2)ccc1OC (stereo not drawn) [Compound 31] — higher, 26.4%
- CCC(=O)Nc1cc(C(O)Cc2cc(OC)c(OC)c(OC)c2)ccc1OC (stereo not drawn) [Compound 32, 1-(3′-propionamido-4′-methoxyphenyl)-2-(3″,4″,5″-trimethoxyphenyl)ethanol] — lower, 17.6%
- CCC(=O)Nc1cc(C(=O)Nc2cc(OC)nc(OC)n2)ccc1OC [Compound 33] — higher, 21.5%
- CNc1cc(C(=O)Nc2cc(OC)c(OC)c(OC)c2)ccc1O [Compound 34] — higher, 38.3%
- CCNc1cc(C(=O)Nc2ccc(OC)c(OC)c2)ccc1OC [Compound 36] — lower, 8.6%
- CCNc1cc(C(=O)Nc2ccc(OC)cc2)ccc1OC [Compound 37] — lower, 7.7%
- CNc1cc(C(=O)Nc2cc(OC)cc(OC)c2)ccc1OC [Compound 40, N-(3′,5′-dimethoxyphenyl)-3-methylamino-4-methoxybenzamide] — lower, 12.7%
- COc1cc(NC(=O)c2ccc(OC)c(N(C)C)c2)cc(OC)c1 [Compound 41] — higher, 21.8%
- CCNc1cc(C(=O)Nc2ccc(OC)cc2)ccc1OC [Compound 42] — higher, 34.3%
- COc1ccc(NC(=O)c2ccc(OC)c(NC(C)C)c2)cc1 [Compound 43] — higher, 26.4%
- CNc1cc(CNc2cc(OC)c(OC)c(OC)c2)ccc1OC [Compound 45] — higher, 27.6%
- CCC(=O)Nc1cc(C(=O)Nc2cccc(OC)c2)ccc1OC [Compound 46] — higher, 29.1%
- CCC(=O)Nc1cc(C(=O)Nc2cc(OC)ncn2)ccc1OC [Compound 47] — lower, 18.2%
- CCC(=O)Nc1cc(C(=O)Nc2cc(OC)co2)ccc1OC [Compound 48, N-(4′-methoxyfuryl-2′-)-4-methoxy-3-propionamidobenzamide] — lower, 16.4%
- CCC(=O)Nc1cc(C(=O)Nc2cc(OC)c[nH]2)ccc1OC [Compound 49, N-(4′-methoxypyrryl-2′-)-4-methoxy-3-propionamidobenzamide] — lower, 9.8%
- CCC(=O)Nc1cc(C(=O)Nc2cccc(O)c2)ccc1OC [Compound 50] — lower, −3.1%
- CCC(=O)Nc1cc(C(=O)Nc2ccnc(O)c2)ccc1OC [Compound 51] — lower, 0.9%
- CCC(=O)Nc1cc(C(=O)Nc2cc(OC)c(O)c(OC)c2)ccc1OC [Compound 58] — lower, 16.6%
- CCC(=O)Nc1cc(NC(=O)c2cc(OC)c(OC)c(OC)c2)ccc1OC [Compound 59] — higher, 19.8%
